Values quoted from earlier work, collected in patent EP0200541B1, “Immunochemical method and analytical composition and element for determination of creatine kinase-MB” (EASTMAN KODAK COMPANY (a New Jersey corporation), priority 1985, dated 1986).

Assays:
total AK = conditions: AMP:ADP molar ratio of 10:1
muscle AK = target: T1, muscle AK (Homo sapiens, UniProt P00568); conditions: 0.01 millimolar DAPP
T1 sequence (P00568 1-194): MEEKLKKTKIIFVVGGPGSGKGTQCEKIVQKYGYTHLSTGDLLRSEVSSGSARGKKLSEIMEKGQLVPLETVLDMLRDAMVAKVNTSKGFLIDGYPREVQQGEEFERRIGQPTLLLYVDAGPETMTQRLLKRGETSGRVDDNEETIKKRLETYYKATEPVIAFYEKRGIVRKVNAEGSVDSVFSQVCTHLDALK

erythrocyte AK = target: T2, erythrocyte AK (Homo sapiens, UniProt P00568); conditions: 0.01 millimolar DAPP
T2 sequence (P00568 1-194): T1 sequence (P00568 1-194)

CK-MB = CK-MB (Homo sapiens, UniProt P06732+P12277); conditions: 0.5-1 millimolar DAPP
liver AK = liver AK (Homo sapiens, UniProt P54819)

Chain of CK-MB (P06732 whole entry): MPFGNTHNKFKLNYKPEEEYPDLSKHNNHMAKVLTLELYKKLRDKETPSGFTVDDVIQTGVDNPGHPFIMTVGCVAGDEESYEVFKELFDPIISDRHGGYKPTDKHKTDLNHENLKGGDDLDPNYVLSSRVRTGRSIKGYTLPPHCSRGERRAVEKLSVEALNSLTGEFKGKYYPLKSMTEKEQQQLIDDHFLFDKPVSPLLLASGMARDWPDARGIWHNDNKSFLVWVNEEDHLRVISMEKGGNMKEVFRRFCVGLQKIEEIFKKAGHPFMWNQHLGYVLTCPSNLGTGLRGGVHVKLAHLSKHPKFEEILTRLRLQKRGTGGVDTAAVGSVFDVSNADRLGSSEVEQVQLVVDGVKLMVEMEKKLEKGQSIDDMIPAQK
Chain of CK-MB (P12277 whole entry): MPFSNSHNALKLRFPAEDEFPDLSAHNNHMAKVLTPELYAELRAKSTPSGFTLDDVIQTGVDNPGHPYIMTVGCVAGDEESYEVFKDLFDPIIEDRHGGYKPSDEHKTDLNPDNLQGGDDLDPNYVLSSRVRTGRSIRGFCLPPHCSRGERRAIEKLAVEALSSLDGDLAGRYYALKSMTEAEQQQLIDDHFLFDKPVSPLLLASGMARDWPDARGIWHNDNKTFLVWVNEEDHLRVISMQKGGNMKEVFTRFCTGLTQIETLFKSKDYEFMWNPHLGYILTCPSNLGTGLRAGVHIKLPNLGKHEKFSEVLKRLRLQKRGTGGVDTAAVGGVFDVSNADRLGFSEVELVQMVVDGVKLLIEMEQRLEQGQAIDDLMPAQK

| muscle AK inhibited (muscle AK) | erythrocyte AK inhibited (erythrocyte AK) | reduction of the activity of CK-MB (CK-MB) | liver isoenzyme inhibited (liver AK; 0.01 millimolar DAPP) | activity of liver AK inhibited (liver AK; 0.5-1 millimolar DAPP alone) | Compound | total AK inhibited (total AK) | reduction of the activity of total CK (total CK; AMP:ADP molar ratio of 10:1) | reduction in CK activity (total CK; 0.5-1 millimolar DAPP alone) |
| --- | --- | --- | --- | --- | --- | --- | --- | --- |
| – | – | – | – | – | Nc1ncnc2c1ncn2[C@@H]1O[C@H](COP(=O)(O)O)[C@@H](O)[C@H]1O [AMP, adenosine-5'-monophosphate] | 95% | 15-20% | – |
| 97% | 97% | at least 5% | 80% | up to 97% | Nc1ncnc2c1ncn2[C@@H]1O[C@H](COP(=O)(O)OP(=O)(O)OP(=O)(O)OP(=O)(O)OP(=O)(O)OC[C@H]2O[C@@H](n3cnc4c(N)ncnc43)[C@H](O)[C@@H]2O)[C@@H](O)[C@H]1O [DAPP, P^1,P^5-di(adenosine-5')pentaphosphate] | – | – | 5% |
